Results reported in ChEMBL document CHEMBL3046649, “Fungitoxic and Phytotoxic Activities of Cinnamic Acid Esters and Amides” (2000).

What was measured:
[1] = system: Brassica rapa subsp. chinensis; assay: whole plant or invertebrate; format: functional; conditions: 72 h, read-out: GI
Description: Phytotoxicity against Brassica rapa subsp. chinensis assessed as growth inhibition of hypocotyl at 100 ppm treated to seeds after 3 days

[2] = system: Brassica rapa subsp. chinensis; assay: whole plant or invertebrate; format: functional; conditions: 72 h, read-out: GI; remark: listed apart in the source
Description: Phytotoxicity against Brassica rapa subsp. chinensis assessed as growth inhibition of radicle at 100 ppm treated to seeds after 3 days

[3] = system: Pythium; assay: microbe, parasite or virus in culture; format: functional; conditions: read-out: GI
Description: Fungitoxic activity against Pythium sp. assessed as mycelial growth inhibition at 100 ppm after 4 to 5 days by agar dilution method

[4] = system: Athelia rolfsii; assay: microbe, parasite or virus in culture; format: functional; conditions: Agroathelia rolfsii, read-out: GI
Description: Fungitoxic activity against Athelia rolfsii assessed as mycelial growth inhibition at 100 ppm after 4 to 5 days by agar dilution method

[5] = system: Athelia rolfsii; assay: Fungitoxic activity against Athelia rolfsii assessed as mycelial growth inhibition at 10 ppm after 4 to 5 days by agar dilution method; format: functional; conditions: Agroathelia rolfsii; read-out: GI
[6] = system: Pythium; assay: Fungitoxic activity against Pythium sp. assessed as mycelial growth inhibition at 10 ppm after 4 to 5 days by agar dilution method; conditions: read-out: GI

| Compound | inhibition of growth at 100 ppm [1] [%] | inhibition of growth at 100 ppm [2] [%] | inhibition of growth at 100 ppm [3] [%] | inhibition of growth at 100 ppm [4] [%] | inhibition of growth at 10 ppm [5] [%] | inhibition of growth at 10 ppm [6] [%] |
| --- | --- | --- | --- | --- | --- | --- |
| CC(C)OC(=O)/C=C/c1ccc(Cl)cc1 [ISOPROPYL 3-(4-CHLOROPHENYL)ACRYLATE] | 18 | 0 | 86 | 99 | 34 | 7 |
| CC(C)OC(=O)/C=C/c1ccc(C(C)C)cc1 [ISOPROPYL 3-(4-ISOPROPYLPHENYL)ACRYLATE] | 18 | 0 | 70 | 92 | 42 | 21 |
| CC(C)OC(=O)/C=C/c1ccccc1 [ISOPROPYL CINNAMATE] | 2 | 2 | 82 | 86 | 41 | 5 |
| COC(=O)/C=C/c1ccc(Cl)cc1Cl [METHYL 3-(2,4-DICHLOROPHENYL)ACRYLATE] | 66 | 84 | 68 | 75 | 43 | 39 |
| COC(=O)/C=C/c1ccc(Cl)cc1 [METHYL 3-(4-CHLOROPHENYL)ACRYLATE] | 84 | 93 | 99 | 94 | 52 | 19 |
| CCCCNC(=O)/C=C/c1ccc(Cl)cc1 [N-BUTYL-3-(4-CHLOROPHENYL)ACRYLAMIDE] | 44 | 62 | 80 | 93 | 58 | 45 |
| CCCCNC(=O)/C=C/c1ccc(C(C)C)cc1 [N-BUTYL-3-(4-ISOPROPYLPHENYL)ACRYLAMIDE] | 41 | 51 | 90 | 92 | 28 | 37 |
| CCCCNC(=O)/C=C/c1ccccc1 [N-BUTYLCINNAMAMIDE] | 50 | 71 | 84 | 94 | 45 | 33 |
| CCCCCCNC(=O)/C=C/c1ccccc1 [N-HEXYLCINNAMAMIDE] | 55 | 82 | 87 | 91 | 32 | 14 |
| CC(C)CNC(=O)/C=C/c1ccc(C(C)C)cc1 [N-ISOBUTYL-3-(4-ISOPROPYLPHENYL)ACRYLAMIDE] | 34 | 45 | 58 | 42 | 37 | 42 |
| CC(C)CNC(=O)/C=C/c1ccccc1 [N-ISOBUTYLCINNAMAMIDE] | 34 | 78 | 74 | 82 | 29 | 23 |
| CC(C)NC(=O)/C=C/c1ccc(C(C)C)cc1 [N-ISOPROPYL-3-(4-ISOPROPYLPHENYL)ACRYLAMIDE] | 50 | 62 | 62 | 80 | 40 | 40 |
| CC(C)NC(=O)/C=C/c1ccccc1 [N-ISOPROPYLCINNAMAMIDE] | 39 | 76 | 47 | 96 | 17 | 0 |
| Cc1cccc(NC(=O)/C=C/c2ccccc2)c1 [N-M-TOLYLCINNAMAMIDE] | 13 | 59 | 85 | 83 | 34 | 52 |
| CCCNC(=O)/C=C/c1ccccc1 [N-PROPYLCINNAMAMIDE] | 15 | 63 | 54 | 89 | 26 | 17 |
| CCC(C)NC(=O)/C=C/c1ccc(Cl)cc1 (stereo unspecified) [N-SEC-BUTYL-3-(4-CHLOROPHENYL)ACRYLAMIDE] | 40 | 61 | 43 | 88 | 44 | 41 |
